The target of one data set is T1, c-Kit(V654A) (Homo sapiens, UniProt P10721, V654A).
T1 construct: recombinant human c-Kit, amino acids 544-end containing the V654A mutation; GST (N)
In words: c-Kit(V654A) assay (33P-ATP filter binding kinase assay). To be noted: recombinant human c-Kit aa 544-end V654A, ATP 200 μM. Type of data set: biochemical. In short, it runs like this: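 Radiometric filter-binding read-out: substrate 33P incorporation counted by scintillation after P30 filtermat washes in 75 mM phosphoric acid and methanol. Enzyme: N-GST recombinant human c-Kit aa 544-end carrying V654A.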

Data set [1] deals with T2, GIST430 cell line expressing constitutive active cKIT receptor tyrosine kinase (Δ560-576 deletion) (Homo sapiens, UniProt P10721, DEL560-576).
T2 construct: endogenous in cells; host or cells: GIST430 cells
In words: Cellular cKIT autophosphorylation (phospho-Y307-cKIT, Luminex bead assay) in GIST430 cells. Type of data set: cell-based. As to the method: Assay Principle for Cellular Testing of cKIT Mutant Inhibitors
The GIST430 cell line expressing constitutive active cKIT receptor tyrosine kinase (Δ560-576 deletion) and the Imatinib resistant GIST430/654 cell line expressing mutated constitutively active cKIT receptor tyrosine kinase (Δ560-576 deletion and V654A point mutation) were employed for assessing cellular potency of compounds. Cellular activity of mutant cKIT was determined by the degree of cKIT autophosphorylation at tyrosine 307 using a Luminex-based bead assay. GIST430 cells were plated with 22,000 cells per well of a 96-well plate in 100 μl medium (85% IMDM/15% FCS) and GIST430/654 cells were plated with 25,000 cells per well of a 96-well plate in 100 μl medium (85% IMDM/15% FCS supplemented with 100 nM Imatinib). At the following day compounds were added in a serial dilution for 45 min. Then, cells were lysed with 90 μl lysis buffer (20 mM Hepes pH 7.5, 200 mM NaCl, 1.5 mM MgCl2×6H2O, 0.4 mM EDTA, 1% Triton-X-100, 1% Phosphatase-Inhibitor II, 20 mM β-Glycerolphosphat, 0.1% Protease-Inhibitor Cocktail III, 0.01% Benzonase) and lysates were cleared by centrifugation through a 96-well filter plate (0.65 μm). Samples were incubated with Luminex-beads which were coupled with an anti-total cKIT antibody overnight at 4° C. under gentle agitation. For detection of phospho-Y307-cKIT a phosphospecific antibody and a species-specific PE-labeled secondary antibody were added. The amount of phospho-Y307-cKIT was determined in a Luminex 200 instrument measuring 100 events per well within 60 seconds.
Counts from samples treated with compounds were calculated as percent of control from solvent treated (0.3% DMSO) samples. Dose-response curves were fitted and IC50 values were determined using Genedata Screener software.

Data set [2] has as its target T3, GIST430/654 cell line expressing mutated constitutively active cKIT receptor tyrosine kinase (Δ560-576 deletion and V654A point mutation) (Homo sapiens, UniProt P10721, DEL560-576/V654A).
T3 construct: endogenous in cells; host or cells: GIST430/654 cells
In words: Cellular cKIT autophosphorylation (phospho-Y307-cKIT, Luminex bead assay) in GIST430/654 cells. It is filed as cell-based. To be noted: compounds 45 min, read-out: GIST 430/654 IC50. A digest of the protocol:
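Phospho-Y307 cKIT in lysates was measured on a Luminex bead assay, with total-cKIT capture overnight at 4 °C and phosphospecific plus PE secondary detection. Cells had 45 min exposure to a compound dilution series the day after plating: GIST430 (Δ560-576) or GIST430/654 (Δ560-576/V654A, grown with 100 nM imatinib). IC50 values are relative to 0.3% DMSO-treated cells.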

A short description of data set [3]: Determination of Efflux-Ratio (ER) in Caco-2 cells. Particulars: human, Caco-2, pH 7.4.
Method: Determination of Efflux-Ratio (ER) in Caco-2 Cells
The efflux ratio of the test compounds was determined in Caco-2 human epithelial colorectal adenocarcinoma cell line (TC7 clone) using calculation of apparent permeability (Papp). Cell monolayers were differentiated in vitro for 14 days before the experiment. Subsequently, the test compound (in HBSS pH 7.4 at 1 μM final concentration) was applied on the donor side while HBSS buffer (pH 7.4) was added to the receiver wells. […] The plate was then incubated in a 5% CO2 incubator (37° C., 100% humidity). At the end of the 2 hours incubation period, 50 μL sample was removed from both donor and receiver wells and diluted 1:1 with equal volumes of acetonitrile for LC-MS/MS analysis. The LC-MS/MS analysis used a one-point calibration method from a 1 μM standard solution diluted 1:1 with equal volume of acetonitrile (consistent to the test samples).
The data was used to calculate the apparent permeabilities of the compounds in both apical to basolateral (Papp,AB) and basolateral to apical (Papp,BA) directions at 1 μM concentration in duplicate. The Papp values were calculated from the concentrations in the donor and receiver compartments using the following formula:
Efflux ratio was calculated according to the following formula:
The mark [4] stands for this setting: cKIT autophosphorylation, GIST430 cells, compounds 45 min, read-out: GIST 430 IC50.

We go through eleven molecules from patent US12655142B2 (Merck Patent GmbH, priority 2019, dated 2026).

SMILES strings stand for the structures. Counter-ions that a name gives are not always drawn. Like-named read-outs stand apart in the source and are kept apart here.

T1 sequence (P10721 544-976 V654A): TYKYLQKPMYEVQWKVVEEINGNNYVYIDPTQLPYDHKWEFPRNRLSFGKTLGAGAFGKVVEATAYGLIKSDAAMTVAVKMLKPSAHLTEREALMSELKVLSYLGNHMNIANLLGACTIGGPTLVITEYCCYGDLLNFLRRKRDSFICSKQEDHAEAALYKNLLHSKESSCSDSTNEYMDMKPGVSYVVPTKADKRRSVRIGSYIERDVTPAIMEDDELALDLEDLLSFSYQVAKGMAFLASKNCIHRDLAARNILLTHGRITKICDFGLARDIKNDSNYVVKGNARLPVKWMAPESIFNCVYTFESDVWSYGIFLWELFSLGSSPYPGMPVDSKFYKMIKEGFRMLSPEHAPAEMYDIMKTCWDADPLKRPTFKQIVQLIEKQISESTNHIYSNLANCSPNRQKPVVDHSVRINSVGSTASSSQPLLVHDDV
T2 sequence (P10721 with tags, fused parts or gaps DEL560-576): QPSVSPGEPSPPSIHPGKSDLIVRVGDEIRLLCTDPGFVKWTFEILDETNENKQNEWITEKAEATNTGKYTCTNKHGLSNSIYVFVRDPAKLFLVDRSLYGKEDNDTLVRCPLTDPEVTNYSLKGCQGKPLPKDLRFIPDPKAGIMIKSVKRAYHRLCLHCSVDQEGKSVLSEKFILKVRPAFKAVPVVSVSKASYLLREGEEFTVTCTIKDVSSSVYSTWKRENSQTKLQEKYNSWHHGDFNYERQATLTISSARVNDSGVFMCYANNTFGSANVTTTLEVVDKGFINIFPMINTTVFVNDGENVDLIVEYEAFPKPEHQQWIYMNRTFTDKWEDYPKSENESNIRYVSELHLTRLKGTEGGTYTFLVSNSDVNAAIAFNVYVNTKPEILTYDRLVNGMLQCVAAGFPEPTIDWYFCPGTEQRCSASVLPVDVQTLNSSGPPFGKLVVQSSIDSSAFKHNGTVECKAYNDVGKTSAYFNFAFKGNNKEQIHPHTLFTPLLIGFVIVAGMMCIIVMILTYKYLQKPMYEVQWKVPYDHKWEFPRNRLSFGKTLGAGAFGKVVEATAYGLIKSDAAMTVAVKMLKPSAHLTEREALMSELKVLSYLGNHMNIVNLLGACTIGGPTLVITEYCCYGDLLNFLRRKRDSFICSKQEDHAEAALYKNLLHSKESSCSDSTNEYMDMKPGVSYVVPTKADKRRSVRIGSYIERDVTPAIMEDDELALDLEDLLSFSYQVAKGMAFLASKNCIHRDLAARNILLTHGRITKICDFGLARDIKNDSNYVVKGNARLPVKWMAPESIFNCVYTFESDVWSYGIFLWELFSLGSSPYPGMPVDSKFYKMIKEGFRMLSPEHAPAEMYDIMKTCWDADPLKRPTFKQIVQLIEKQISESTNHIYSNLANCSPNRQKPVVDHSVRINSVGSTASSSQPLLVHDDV
T3 sequence (P10721 with tags, fused parts or gaps DEL560-576/V654A): as the sequence (P10721 with tags, fused parts or gaps DEL560-576) above, with V612A counted along it

For `COCCOc1ccn2c(-c3cc(NCc4ccc(-c5cccnc5)cc4)ncn3)cnc2c1` [A5, 6-[7-(2-methoxyethoxy)imidazo[1,2-a]23yridine-3-yl]-N-{[4-(23yridine-3-yl)phenyl]methyl}pyrimidin-4-amine], the values for the IC50 (at c-Kit(V654A); in data set [1] (setting [4]); in data set [2]) were 0.0082 µM, 5.3e-09 M and 0.17 µM, respectively.

As to `COc1ccn2c(-c3cc(NCc4ccc(-c5cccnc5)cc4)ncn3)cnc2c1` [A6, 6-{7-methoxyimidazo[1,2-a]23yridine-3-yl}-N-{[4-(23yridine-3-yl)phenyl]methyl}pyrimidin-4-amine], the IC50 at c-Kit(V654A) worked out at 0.0064 µM; in data set [1] (setting [4]), 2e-08 M; in data set [2] it was 0.35 µM.

As for `COCCOc1ccn2c(-c3cc(NCc4ccc(-c5ccn(C)n5)cc4)ncn3)cnc2c1` [A7, 6-[7-(2-methoxyethoxy)imidazo[1,2-a]pyridin-3-yl]-N-{[4-(1-methyl-1H-pyrazol-3-yl)phenyl]methyl}pyrimidin-4-amine], the IC50 was 0.0047 µM on c-Kit(V654A), 6.1e-09 M in data set [1] (setting [4]) and 0.3 µM in data set [2].

For the molecule `c1ccn2c(-c3cc(NCc4ccc(-n5cccn5)cc4)ncn3)cnc2c1` [A9, (6-Imidazo[1,2-a]23yridine-3-yl-pyrimidin-4-yl)-(4-pyrazol-1-yl-benzyl)-amine], the values for the IC50 (at c-Kit(V654A); in data set [1] (setting [4]); in data set [2]) were 0.0022 µM, 2.4e-09 M and 0.19 µM, respectively.

As for `COCCOc1ccn2c(-c3cc(NCc4ccc(-c5cnn(C)c5)nc4)ncn3)cnc2c1` [A11, 6-[7-(2-methoxyethoxy)imidazo[1,2-a]pyridin-3-yl]-N-{[6-(1-methyl-1H-pyrazol-4-yl)pyridin-3-yl]methyl}pyrimidin-4-amine], the IC50 on c-Kit(V654A) came out at 0.015 µM; in data set [1] (setting [4]), 7e-09 M; in data set [2] it was 0.17 µM.

As for `Cn1cc(-c2ccc(CNc3cc(-c4cnc5cc(OCCCN6CCCC6)ccn45)ncn3)cc2)cn1` [A75 hydrochloride, [4-(1-methyl-1H-pyrazol-4-yl)-benzyl]-{6-[7-(3-pyrrolidin-1-yl-propoxy)-imidazo[1,2-a]pyridin-3-yl]-pyrimidin-4-yl}-amine hydrochloride], the IC50 is 0.0058 µM at c-Kit(V654A) and 2.1e-09 M in data set [1] (cell line not specified (GIST), read-out: IC50 [M] GIST).

As to `COc1ccn2c(-c3ncnc(NCc4ccc(-c5cnn(C)c5)cc4)c3F)cnc2c1` [A97, 5-fluoro-6-{7-methoxyimidazo[1,2-a]pyridin-3-yl}-N-{[4-(1-methyl-1H-pyrazol-4-yl)phenyl]methyl}pyrimidin-4-amine], the IC50 on c-Kit(V654A) was 0.0066 µM; in data set [1] (setting [4]) it was 8.8e-09 M; in data set [2], 0.23 µM.

For `Cc1cc(N2CC[C@H](F)C2)ncc1CNc1cc(-c2cnc3ccccn23)ncn1` [A155, [6-((S)-3-fluoro-pyrrolidin-1-yl)-4-methyl-pyridin-3-ylmethyl]-(6-imidazo[1,2-a]pyridin-3-yl-pyrimidin-4-yl)-amine], the IC50 on c-Kit(V654A) turned out to be 0.092 µM; in data set [1] (setting [4]), 5.1e-08 M; in data set [2], 30 µM.

For orientation: efflux ratio means the permeability from basolateral to apical divided by that in the opposite direction, in the common usage. As for `OCCOc1ccn2c(-c3cc(NCc4ccc(-c5cocn5)cc4)ncn3)cnc2c1` [A251, 2-{3-[6-(4-oxazol-4-yl-benzylamino)-pyrimidin-4-yl]-imidazo[1,2-a]pyridin-7-yloxy}-ethanol], the IC50 at c-Kit(V654A) is 0.002 µM; in data set [2], 0.044 µM. The efflux ratio at 2 h, 1 μM in data set [3] is below 15.

In the case of `Cn1cc(-c2ccc(CNc3cc(-c4cnc5cc(OCCn6cccn6)ccn45)ncn3)cc2)cn1` [A255, N-{[4-(1-methyl-1H-pyrazol-4-yl)phenyl]methyl}-6-{7-[2-(1H-pyrazol-1-yl)ethoxy]imidazo[1,2-a]pyridin-3-yl}pyrimidin-4-amine], the results for the IC50 (on c-Kit(V654A); in data set [2]) were 0.015 µM and 0.1 µM, respectively. The efflux ratio at 2 h, 1 μM in data set [3] is below 15.

Consider `Cn1cc(-c2ccc(CNc3cc(-c4cnc5cc(OCCCn6cccn6)ccn45)ncn3)cc2)cn1` [A257, N-{[4-(1-methyl-1H-pyrazol-4-yl)phenyl]methyl}-6-{7-[3-(1H-pyrazol-1-yl)propoxy]imidazo[1,2-a]pyridin-3-yl}pyrimidin-4-amine], for which the IC50 at c-Kit(V654A) worked out at 0.016 µM; in data set [2] it was 0.13 µM. The efflux ratio at 2 h, 1 μM in data set [3] is below 15.
